Test results published in ChEMBL document CHEMBL5550214, “Expanding Structure-Activity Relationships of Human Urotensin II Peptide Analogues: A Proposed Key Role of the N-Terminal Region for Novel Urotensin II Receptor Modulators” (J Med Chem, 2024).
Each block holds one molecule with its values, some of them ahead of it. Active and inactive are the calls of the source. No cut-off for these calls is given here. Where a SMILES comes first, the peptide text is derived from it. Bridges are numbered along the chain shown (N, C = ends). [ ]: non-standard residue; d: D form. Pen = CC(C)(S)[C@H](N)C(=O)O; hSer = N[C@@H](CCO)C(=O)O; Orn = NCCC[C@H](N)C(=O)O; Dab = NCC[C@H](N)C(=O)O

Key:
[1] = test system: Aortic ring; experiment: Induction of contraction in Albino Wistar rat aortic ring at 1 to 30 nM relative to control; type: functional, Aorta; conditions: dose 1-30 nM
[2] = target: T1, Urotensin-2 receptor (Homo sapiens) (UniProt Q9UKP6); experiment: Modulation of human UTR stably expressed in HEK293 cells assessed as increase in Ca2+ level at 0.1 to 100 nM by Fura 2-AM dye based calcium mobilization assay; type: functional, cell-based; conditions: dose 0.1-100 nM
T1 sequence (whole entry): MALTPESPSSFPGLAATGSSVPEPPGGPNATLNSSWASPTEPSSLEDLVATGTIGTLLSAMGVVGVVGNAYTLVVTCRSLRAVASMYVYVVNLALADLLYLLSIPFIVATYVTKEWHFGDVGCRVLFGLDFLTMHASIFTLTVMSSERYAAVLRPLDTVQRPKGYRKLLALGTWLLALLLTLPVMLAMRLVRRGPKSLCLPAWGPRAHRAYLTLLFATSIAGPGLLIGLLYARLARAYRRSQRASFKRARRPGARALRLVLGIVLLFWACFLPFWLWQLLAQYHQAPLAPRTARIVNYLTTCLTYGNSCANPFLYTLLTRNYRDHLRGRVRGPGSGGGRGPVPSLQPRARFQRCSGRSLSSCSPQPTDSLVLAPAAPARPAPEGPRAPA

[3] = test system: Aortic ring; experiment: Induction of contraction in Albino Wistar rat aortic ring at 1 to 30 nM; type: functional, tissue-based; conditions: Aorta, dose 1-30 nM
[4] = test system: Aortic ring; experiment: Induction of contraction in Albino Wistar rat aortic ring assessed as Emax of hU-II at 1 uM incubated for 30 mins in presence of hU-II (reference value: 224.8 +/- 11.71 dyne/mg); type: functional, Aorta; conditions: 0.5 h
[5] = test system: Aortic ring; experiment: Induction of contraction in Albino Wistar rat aortic ring assessed as Emax of hU-II at 0.1 uM incubated for 30 mins in presence of hU-II (reference value: 251.4 +/- 15.43 dyne/mg); type: functional, Aorta; conditions: 0.5 h
[6] = test system: Aortic ring; experiment: Induction of contraction in Albino Wistar rat aortic ring assessed as Emax of hU-II at 10 uM incubated for 30 mins in presence of hU-II (reference value: 214.5 +/- 10.51 dyne/mg); type: functional, Aorta; conditions: 0.5 h
[7] = test system: Aortic ring; experiment: Induction of contraction in Albino Wistar rat aortic ring assessed as Emax of U-II(4-11) at 0.1 uM incubated for 30 mins in presence of U-II(4-11) (reference value: 159.8 +/- 7.39 dyne/mg); type: functional, Aorta; conditions: 0.5 h
[8] = test system: Aortic ring; experiment: Induction of contraction in Albino Wistar rat aortic ring assessed as Emax of U-II(4-11) at 1 uM incubated for 30 mins in presence of U-II(4-11) (reference value: 159.8 +/- 7.3 dyne/mg); type: functional, Aorta; conditions: 0.5 h
[9] = test system: Aortic ring; experiment: Induction of contraction in Albino Wistar rat aortic ring assessed as Emax of U-II(4-11) at 10 uM incubated for 30 mins in presence of U-II(4-11) (reference value: 152.4 +/- 5.1 dyne/mg); type: functional, Aorta; conditions: 0.5 h
[10] = test system: Aortic ring; experiment: Induction of contraction in Albino Wistar rat aortic ring assessed as Emax of [Ala1]U-II at 10 uM incubated for 30 mins in presence of [Ala1]U-II (reference value: 308.1 +/- 21.4 dyne/mg); type: functional, Aorta; conditions: 0.5 h
[11] = test system: Aortic ring; experiment: Induction of contraction in Albino Wistar rat aortic ring assessed as Emax of [Ala1]U-II at 1 uM incubated for 30 mins in presence of [Ala1]U-II (reference value: 220.3 +/- 17.48 dyne/mg); type: functional, Aorta; conditions: 0.5 h
[12] = test system: Aortic ring; experiment: Induction of contraction in Albino Wistar rat aortic ring assessed as Emax of [Ala1]U-II at 0.1 uM incubated for 30 mins in presence of [Ala1]U-II (reference value: 323 +/- 30.45 dyne/mg); type: functional, Aorta; conditions: 0.5 h
[13] = target: T1, Urotensin-2 receptor (Homo sapiens); experiment: Modulation of human UTR stably expressed in HEK293 cells assessed as increase in Ca2+ level at 0.01 to 1 nM by Fura 2-AM dye based calcium mobilization assay; type: functional, cell-based; conditions: filed as modulator, dose 0.01-1 nM
[14] = test system: Aortic ring; experiment: Induction of contraction in Albino Wistar rat aortic ring assessed as Emax of hU-II at 0.1 uM incubated for 30 mins in presence of hU-II (reference value: 224.8 +/- 11.71 dyne/mg); type: functional, Aorta; conditions: 0.5 h
[15] = test system: Aortic ring; experiment: Induction of contraction in Albino Wistar rat aortic ring assessed as Emax of hU-II at 10 uM incubated for 30 mins in presence of hU-II (reference value: 238.4 +/- 9.53 dyne/mg); type: functional, Aorta; conditions: 0.5 h
[16] = test system: Aortic ring; experiment: Induction of contraction in Albino Wistar rat aortic ring assessed as Emax of hU-II at 1 uM incubated for 30 mins in presence of hU-II (reference value: 214.5 +/- 10.51 dyne/mg); type: functional, Aorta; conditions: 0.5 h
[17] = test system: Aortic ring; experiment: Induction of contraction in Albino Wistar rat aortic ring assessed as Emax of [Ala1]U-II at 0.1 uM incubated for 30 mins in presence of [Ala1]U-II (reference value: 308.1 +/- 21.4 dyne/mg); type: functional, Aorta; conditions: 0.5 h
[18] = test system: Aortic ring; experiment: Induction of contraction in Albino Wistar rat aortic ring assessed as Emax of [Ala1]U-II at 10 uM incubated for 30 mins in presence of [Ala1]U-II (reference value: 391.6 +/- 38.83 dyne/mg); type: functional, Aorta; conditions: 0.5 h
[19] = test system: Aortic ring; experiment: Induction of contraction in Albino Wistar rat aortic ring assessed as Emax of [Ala1]U-II at 1 uM incubated for 30 mins in presence of [Ala1]U-II (reference value: 153.3 +/- 10.75 dyne/mg); type: functional, Aorta; conditions: 0.5 h
[20] = test system: Aortic ring; experiment: Induction of contraction in Albino Wistar rat aortic ring assessed as Emax of hU-II at 10 uM incubated for 30 mins in presence of hU-II (reference value: 224.8 +/- 11.71 dyne/mg); type: functional, Aorta; conditions: 0.5 h
[21] = test system: Aortic ring; experiment: Induction of contraction in Albino Wistar rat aortic ring assessed as Emax of hU-II at 1 uM incubated for 30 mins in presence of hU-II (reference value: 251.4 +/- 15.43 dyne/mg); type: functional, Aorta; conditions: 0.5 h
[22] = test system: Aortic ring; experiment: Induction of contraction in Albino Wistar rat aortic ring assessed as Emax of hU-II at 0.1 uM incubated for 30 mins in presence of hU-II (reference value: 279.9 +/- 11.02 dyne/mg); type: functional, Aorta; conditions: 0.5 h
[23] = target: T1, Urotensin-2 receptor (Homo sapiens); experiment: Modulation of human UTR stably expressed in HEK293 cells assessed as increase in Ca2+ level at 0.1 nM by Fura 2-AM dye based calcium mobilization assay; type: functional, cell-based; conditions: filed as modulator
[24] = target: T2, Urotensin-2 receptor (Homo sapiens, UniProt Q9UKP6); experiment: Modulation of human UTR stably expressed in HEK293 cells assessed as increase in Ca2+ level by Fura 2-AM dye based calcium mobilization assay; type: functional, cell-based
T2 sequence (Q9UKP6 whole entry): T1 sequence (whole entry)

SMILES: CC(C)[C@H](NC(=O)[C@@H]1CSSC[C@H](NC(=O)[C@H](CC(=O)O)NC(=O)[C@@H]2CCCN2C(=O)[C@@H](NC(=O)[C@@H](N)CCC(=O)O)[C@@H](C)O)C(=O)N[C@@H](Cc2ccccc2)C(=O)N[C@@H](Cc2c[nH]c3ccccc23)C(=O)N[C@@H](CCCCN)C(=O)N[C@@H](Cc2ccc(O)cc2)C(=O)N1)C(=O)O [UROTENSIN-II]
Emax [1]: 237.2 dyn/mg

SMILES: CC(C)[C@H](NC(=O)[C@@H]1CSSC(C)(C)[C@H](NC(=O)[C@H](CC(=O)O)NC(=O)[C@@H]2CCCN2C(=O)[C@@H](NC(=O)[C@@H](N)CCC(N)=O)[C@@H](C)O)C(=O)N[C@@H](Cc2ccccc2)C(=O)N[C@H](Cc2c[nH]c3ccccc23)C(=O)N[C@@H](CCCN)C(=O)N[C@@H](Cc2ccc(O)cc2)C(=O)N1)C(=O)O
Activity ([2]; filed as modulator): Active | Activity [3]: inactive | Emax [4]: 336.6 dyn/mg | Emax [5]: 507.7 dyn/mg | Emax [6]: 245.7 dyn/mg | Emax [7]: 265.4 dyn/mg | Emax [8]: 215.7 dyn/mg | Emax [9]: 164.2 dyn/mg | Emax [10]: 218.8 dyn/mg | Emax [11]: 295.9 dyn/mg | Emax [12]: 46.4 dyn/mg

SMILES: CC(C)[C@H](NC(=O)[C@@H]1CSSC[C@H](NC(=O)[C@H](CC(=O)O)NC(=O)[C@@H]2CCCN2C(=O)[C@@H](NC(=O)[C@H](C)N)[C@@H](C)O)C(=O)N[C@@H](Cc2ccccc2)C(=O)N[C@@H](Cc2c[nH]c3ccccc23)C(=O)N[C@@H](CCCCN)C(=O)N[C@@H](Cc2ccc(O)cc2)C(=O)N1)C(=O)O (H-ATPDCFWKYCV-OH; disulfide 5-10)
Activity [13]: Active

SMILES: CC(C)[C@H](NC(=O)[C@@H]1CSSC[C@H](NC(=O)[C@H](CC(=O)O)NC(=O)[C@@H]2CCCN2C(=O)[C@@H](NC(=O)[C@@H](N)CCN)[C@@H](C)O)C(=O)N[C@@H](Cc2ccccc2)C(=O)N[C@@H](Cc2c[nH]c3ccccc23)C(=O)N[C@@H](CCCCN)C(=O)N[C@@H](Cc2ccc(O)cc2)C(=O)N1)C(=O)O (H-[Dab]TPDCFWKYCV-OH; disulfide 5-10)
Emax [1]: 97.78 dyn/mg

SMILES: CC(C)[C@H](NC(=O)[C@@H]1CSSC(C)(C)[C@H](NC(=O)[C@H](CC(=O)O)NC(=O)[C@@H]2CCCN2C(=O)[C@@H](NC(=O)[C@@H](N)CCN)[C@@H](C)O)C(=O)N[C@@H](Cc2ccccc2)C(=O)N[C@H](Cc2c[nH]c3ccccc23)C(=O)N[C@@H](CCCN)C(=O)N[C@@H](Cc2ccc(O)cc2)C(=O)N1)C(=O)O
Activity [2]: inactive | Activity [3]: inactive | Emax [20]: 208.6 dyn/mg | Emax [21]: 397 dyn/mg | Emax [22]: 164 dyn/mg | Emax [7]: 98.9 dyn/mg | Emax [8]: 166.4 dyn/mg | Emax [9]: 119.5 dyn/mg | Emax [10]: 141.2 dyn/mg | Emax [11]: 99.6 dyn/mg | Emax [12]: 38.23 dyn/mg

More lines, main results first:

Activity ([2]; filed as modulator): Active
SMILES: CC(C)[C@H](NC(=O)[C@@H]1CSSC(C)(C)[C@H](NC(=O)[C@H](CC(=O)O)NC(=O)[C@@H]2CCCN2C(=O)[C@@H](NC(=O)[C@@H](N)CCC(=O)O)[C@@H](C)O)C(=O)N[C@@H](Cc2ccccc2)C(=O)N[C@H](Cc2c[nH]c3ccccc23)C(=O)N[C@@H](CCCN)C(=O)N[C@@H](Cc2ccc(O)cc2)C(=O)N1)C(=O)O
Activity [3]: inactive | Emax [14]: 251.6 dyn/mg | Emax [15]: 327 dyn/mg | Emax [16]: 143.5 dyn/mg | Emax [7]: 223.4 dyn/mg | Emax [8]: 166.6 dyn/mg | Emax [9]: 231 dyn/mg | Emax [17]: 216.19 dyn/mg | Emax [18]: 727.7 dyn/mg | Emax [19]: 146.8 dyn/mg

Activity [2]: inactive
SMILES: CC(C)[C@H](NC(=O)[C@@H]1CSSC(C)(C)[C@H](NC(=O)[C@@H](N)CC(=O)O)C(=O)N[C@@H](Cc2ccccc2)C(=O)N[C@H](Cc2c[nH]c3ccccc23)C(=O)N[C@@H](CCCN)C(=O)N[C@@H](Cc2ccc(O)cc2)C(=O)N1)C(=O)O (H-D[Pen]F[dW][Orn]YCV-OH; disulfide 2-7)
Activity [3]: inactive

Activity [2]: inactive | Activity [23]: Active
SMILES: CC(C)[C@H](NC(=O)[C@@H]1CSSC[C@H](NC(=O)[C@H](CC(=O)O)NC(=O)[C@@H]2CCCN2C(=O)[C@@H](NC(=O)[C@@H](N)CCO)[C@@H](C)O)C(=O)N[C@@H](Cc2ccccc2)C(=O)N[C@@H](Cc2c[nH]c3ccccc23)C(=O)N[C@@H](CCCCN)C(=O)N[C@@H](Cc2ccc(O)cc2)C(=O)N1)C(=O)O (H-[hSer]TPDCFWKYCV-OH; disulfide 5-10)
Emax [1]: 144.2 dyn/mg

EC50 [24]: 1.2 nM
SMILES: CC(C)[C@H](NC(=O)[C@@H]1CSSC[C@H](NC(=O)[C@@H](N)CC(=O)O)C(=O)N[C@@H](Cc2ccccc2)C(=O)N[C@@H](Cc2c[nH]c3ccccc23)C(=O)N[C@@H](CCCCN)C(=O)N[C@@H](Cc2ccc(O)cc2)C(=O)N1)C(=O)O (H-DCFWKYCV-OH; disulfide 2-7)
